Reference: the NIST ThermoML archive (doi:10.1021/je060271a)

Details: 323.15 K, Liquid, Vibrating tube method

CCCCCCCC(=O)OCC(COC(=O)CCCCCCC)(COC(=O)CCCCCCC)COC(=O)CCCCCCC [pentaerythritol tetraoctanoate]
Details	mass density [kg/m3]
16301 kPa	951.3
16330 kPa	951.2
16376 kPa	951.3
16399 kPa	951.4
16422 kPa	951.4
16451 kPa	951.3
16486 kPa	951.5
16514 kPa	951.3
16560 kPa	951.4
16590 kPa	951.6
16619 kPa	951.6
16654 kPa	951.5
16683 kPa	951.5
16714 kPa	951.6
16744 kPa	951.6
16780 kPa	951.7
16810 kPa	951.5
16846 kPa	951.5
16876 kPa	951.7
16907 kPa	951.6
16937 kPa	951.7
16974 kPa	951.6
17005 kPa	951.8
17037 kPa	951.9
17074 kPa	951.8
17106 kPa	951.8
17140 kPa	951.8
17172 kPa	951.9
17203 kPa	951.8
17241 kPa	951.9
17266 kPa	951.9
17311 kPa	951.8
17344 kPa	951.9
17376 kPa	951.9
17414 kPa	952
17448 kPa	951.9
17480 kPa	952
17513 kPa	951.9
17554 kPa	952
17583 kPa	952.2
17622 kPa	952.1
17656 kPa	952.1
17696 kPa	952.2
17730 kPa	952.1
17763 kPa	952.1
17797 kPa	952.3
17838 kPa	952.3
17872 kPa	952.2
17907 kPa	952.2
17948 kPa	952.3
17984 kPa	952.3
18019 kPa	952.4
18055 kPa	952.5
18097 kPa	952.4
18132 kPa	952.3
18168 kPa	952.3
18210 kPa	952.5
18246 kPa	952.5
18282 kPa	952.4
18325 kPa	952.6
18361 kPa	952.5
18398 kPa	952.7
18442 kPa	952.6
18479 kPa	952.7
18516 kPa	952.6
18554 kPa	952.7
18599 kPa	952.7
18637 kPa	952.7
18682 kPa	952.7
18720 kPa	952.8
18758 kPa	952.8
18796 kPa	952.7
18843 kPa	952.9
18882 kPa	952.8
18922 kPa	952.9
18970 kPa	953
19012 kPa	953
19056 kPa	953
19097 kPa	953
19139 kPa	953.1
19166 kPa	952.9
19197 kPa	953.2
19223 kPa	953.1
19250 kPa	953.1
19282 kPa	953
19308 kPa	953.1
19341 kPa	953.3
19368 kPa	953.2
19395 kPa	953.2
19422 kPa	953.3
19456 kPa	953.2
19483 kPa	953.2
19511 kPa	953.2
19543 kPa	953.4
19571 kPa	953.3
19603 kPa	953.2
19632 kPa	953.3
19660 kPa	953.4
19688 kPa	953.4
19722 kPa	953.4
19750 kPa	953.4
19778 kPa	953.4
19812 kPa	953.4
19842 kPa	953.6
19871 kPa	953.4
19905 kPa	953.5
19934 kPa	953.4
19962 kPa	953.5
19997 kPa	953.5
20055 kPa	953.4
20090 kPa	953.6
20119 kPa	953.6
20149 kPa	953.7
20185 kPa	953.7
20216 kPa	953.7
20246 kPa	953.7
20276 kPa	953.7
20307 kPa	953.8
20343 kPa	953.7
20373 kPa	953.7
20404 kPa	953.7
20441 kPa	953.8
20471 kPa	953.8
20502 kPa	953.9
20538 kPa	953.8
20570 kPa	954
20601 kPa	953.9
20634 kPa	954
20667 kPa	954
20705 kPa	954
20736 kPa	954
20767 kPa	954
20805 kPa	954.1
20836 kPa	954.1
20868 kPa	954
20906 kPa	954
20938 kPa	954.2
20970 kPa	954.1
21008 kPa	954.2
21041 kPa	954.1
21074 kPa	954.1
21107 kPa	954.2
21146 kPa	954.2
21178 kPa	954.1
21218 kPa	954.3
21251 kPa	954.4
21284 kPa	954.4
21324 kPa	954.4
21358 kPa	954.4
21391 kPa	954.4
21431 kPa	954.4
21466 kPa	954.4
21500 kPa	954.5
21542 kPa	954.5
21576 kPa	954.5
21604 kPa	954.5
21646 kPa	954.4
21680 kPa	954.7
21722 kPa	954.6
21756 kPa	954.6
21798 kPa	954.5
21832 kPa	954.6
21946 kPa	954.8
21982 kPa	954.6
22025 kPa	954.7
22061 kPa	954.8
22097 kPa	954.7
22134 kPa	954.9
22178 kPa	954.9
22215 kPa	954.9
22259 kPa	954.9
22295 kPa	955
22325 kPa	954.9
22369 kPa	954.9
22414 kPa	955
22451 kPa	955.1
22490 kPa	955.1
22537 kPa	955.1
22576 kPa	955
22616 kPa	955.2
22664 kPa	955.1
22705 kPa	955.3
22743 kPa	955.2
22780 kPa	955.2
22834 kPa	955.5
22861 kPa	955.3
22894 kPa	955.3
22922 kPa	955.3
22950 kPa	955.3
22983 kPa	955.3
23011 kPa	955.4
23038 kPa	955.4
23066 kPa	955.4
23100 kPa	955.3
23127 kPa	955.5
23161 kPa	955.5
23189 kPa	955.5
23217 kPa	955.6
23250 kPa	955.5
23279 kPa	955.6
23308 kPa	955.5
23344 kPa	955.5
23372 kPa	955.7
23400 kPa	955.5
23429 kPa	955.7
23464 kPa	955.7
23492 kPa	955.6
23521 kPa	955.6
23556 kPa	955.6
23585 kPa	955.8
23614 kPa	955.8
23649 kPa	955.8
23679 kPa	955.8
23709 kPa	955.9
23740 kPa	955.8
23769 kPa	955.8
23804 kPa	955.8
23834 kPa	955.8
23869 kPa	955.8
23899 kPa	955.9
23929 kPa	955.9
23965 kPa	955.9
23995 kPa	955.9
24025 kPa	955.9
24062 kPa	956
24092 kPa	955.9
24124 kPa	955.9
24161 kPa	956
24191 kPa	956.2
24223 kPa	956.1
24260 kPa	956.1
24291 kPa	956
24322 kPa	956.2
24354 kPa	956.1
24391 kPa	956.2
24422 kPa	956.1
24460 kPa	956.2
24491 kPa	956.3
24523 kPa	956.3
24562 kPa	956.3
24594 kPa	956.3
24626 kPa	956.3
24658 kPa	956.4
24696 kPa	956.4
24728 kPa	956.4
24766 kPa	956.4
24799 kPa	956.4
24832 kPa	956.5
24871 kPa	956.5
24903 kPa	956.5
24936 kPa	956.6
24976 kPa	956.5
25008 kPa	956.6
25042 kPa	956.6
25075 kPa	956.5
25115 kPa	956.5
25149 kPa	956.7
25188 kPa	956.6
25222 kPa	956.6
25256 kPa	956.7
25290 kPa	956.7
25330 kPa	956.6
25364 kPa	956.7
25398 kPa	956.8
25439 kPa	956.8
25474 kPa	956.8
25509 kPa	956.8
25550 kPa	956.8
25584 kPa	957
25619 kPa	956.9
25654 kPa	957
25695 kPa	957
25729 kPa	956.9
25771 kPa	957
25806 kPa	957.1
25842 kPa	957.1
25878 kPa	957.1
25920 kPa	957.1
25957 kPa	957
25993 kPa	957.2
26028 kPa	957.1
26071 kPa	957.1
26107 kPa	957.1
26150 kPa	957.2
26186 kPa	957.2
26223 kPa	957.3
26259 kPa	957.3
26303 kPa	957.3
26340 kPa	957.2
26384 kPa	957.3
26421 kPa	957.5
26460 kPa	957.3
26498 kPa	957.4
26535 kPa	957.4
26579 kPa	957.5
